The record followed here is US9394317B2, “Imidazo pyridine compounds” (Eli Lilly and Company, priority 2013, dated 2016).

One test concerns the target T1, endogenous autotaxin (Homo sapiens, UniProt Q13822).
T1 construct: The increased endogenous LPC levels are cleaved by endogenous autotaxin; tissue Lampire Biologicals; host or cells: pooled human plasma (healthy female donors, sodium heparin)
Description: Reduction of LPA in the Presence of Human Plasma. The class given is biochemical. Conditions: 90% pooled human plasma, 3 hours at 37° C., total LPA by mass spec; arithmetic mean. An excerpt:
The following assay is intended to measure the reduction of LPA. This assay is a tool that can be used to identify selective autotaxin-mediated LPA inhibitor compounds when it is used to test compounds that have been identified as autotaxin inhibitors. LPA biosynthesis through autotaxin is believed to the source of LPA for LPA1 mediated neuropathic pain. Makoto Inoue, et. al, “Autotaxin, a synthetic enzyme of lysophosphatidic acid (LPA), mediates the induction of nerve-injured neuropathic pain”, Molecular Pain, 2008, 4:6. Targeted inhibition of the autotaxin mediated LPA biosynthesis is supported by the results of this assay.
Units of plasma from healthy human female donors collected in sodium heparin (Lampire Biologicals) are pooled, aliquoted and stored at −80° C. […] A 400 μl aliquot of extraction buffer (50% methanol, 49.9% acetonitrile, 0.1% acetic acid) containing LPA internal standards (50 ng/ml D5 deuterium LPA 16:0 and 50 ng/ml D5 deuterium LPA 18:0) is added to each well and the total LPA in each sample is determined by mass spec analysis. Percent reduction of LPA is calculated according to the following formula: 100−(3 hour plasma+test compound−0 hour plasma no test compound control)/(3 hour plasma no test compound control−0 hour plasma no test compound control)×100
IC50 values are calculated using 4 parameter curve fitting. […]

Test [1] has as its target T2, recombinant human autotaxin (Homo sapiens, UniProt Q13822).
T2 construct: full length human autotaxin with a C-terminal His tag transfected into 293E cells; His tag (C); made in house; host or cells: 293E cells
The test is described as follows: Inhibition of Autotaxin as Measured by Choline Release. The test is classed as biochemical. Conditions: substrate LPC 16:0 30 μM, 37° C., 1 hour; arithmetic mean. On the procedure: The purpose of this assay is to detect autotaxin inhibition using a choline release assay.
Test compounds (10 mM stocks in 100% DMSO) are serially diluted in 100% DMSO resulting in 10 concentrations of 100× inhibitor in half area 96 well plates (Corning 3992). Each of these 10 wells in 100% DMSO is diluted 1:33.33 in assay buffer in round bottom 96 well plates (Fisher 12565502) resulting in 3× concentrations in well containing 3% DMSO. The assay buffer is 50 mM Tris pH8.0, 5 mM KCl, 1 mM CaCl2, 1 mM MgCl2, 0.01% TRITON™ X-100 (Sigma T9284) and 0.01% fatty acid free bovine serum albumin (Sigma A8806). A 20 μl aliquot of each 3× test compound is then added to black flat bottom 96 well plates (Corning 3991) in singlicate. A 20 μl aliquot per well of 3× recombinant human autotaxin (full length human autotaxin with a C-terminal His tag transfected into 293E cells and purified via nickel chelate and size exclusion chromatography) is then added to every well except for the no enzyme control wells. […] The resorufin on the plates is measured with a SpectraMax Gemini EM fluorometer at excitation-emission wavelengths of 530-590 nm using SoftMax Pro 4.8 software. IC50s are calculated using 4 parameter curve fits with the internal Lilly software OLO curve fitting tool. Results are expressed as the arithmetic mean +/− standard deviation; n=x.

pIC50: −log10 of the molar value.

As usually defined, the pIC50 is the negative decadic logarithm of the IC50, by convention in mol/L. As to `O=C(OCC1CCc2nccn2C1)N1Cc2cnc(NC3Cc4ccccc4C3)nc2C1` (single isomer, unassigned; isomer 2) [Example 3, 5,6,7,8-tetrahydroimidazo[1,2-a]pyridin-6-ylmethyl 2-(2,3-dihydro-1H-inden-2-ylamino)-5,7-dihydro-6H-pyrrolo[3,4-d]pyrimidine-6-carboxylate isomer 2], the pIC50 on endogenous autotaxin is 8.65; in test [1], more than 8.77.

Take `O=C(OCC1Cn2ccnc2CO1)N1Cc2cnc(NC3Cc4ccccc4C3)nc2C1` (single isomer, unassigned; isomer 2) [Example 8, 5,6-dihydro-8H-imidazo[2,1-c][1,4]oxazin-6-ylmethyl 2-(2,3-dihydro-1H-inden-2-ylamino)-5,7-dihydro-6H-pyrrolo[3,4-d]pyrimidine-6-carboxylate isomer 2]: the pIC50 at endogenous autotaxin is 7.89; in test [1], 8.69.
